SMILES strings stand for the structures.

In this assay the target is T1, human mPGES-1 (Homo sapiens, UniProt O14684).
T1 sequence (O14684 1-152): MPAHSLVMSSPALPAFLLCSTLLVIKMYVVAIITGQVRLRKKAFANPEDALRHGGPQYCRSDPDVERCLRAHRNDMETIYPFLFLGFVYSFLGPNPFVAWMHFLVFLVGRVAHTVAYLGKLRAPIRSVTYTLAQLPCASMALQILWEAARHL
Nature of the assay: Microsomal prostaglandin E synthase biochemical assay. The settings on record: microsome preparation containing human mPGES-1; PGH2 10.8 μM, GSH 2.5 mM, pH 6.8; PGE2 by HTRF; average of at least n=2. The essentials: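 Human mPGES-1 microsomes at 2 μg/mL were pre-incubated 15 min with compound (60 μM to 0.002 μM) in 50 mM potassium phosphate pH 6.8 with 2.5 mM GSH. The reaction was started with 10.8 μM PGH2 and stopped after 1 minute with acidic ferric chloride/citrate. PGE2 was quantified by HTRF; IC50 is the mean of at least 2 runs.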
Regarding `Cn1c(-c2cccc(S(=O)(=O)Nc3ccccc3S(N)(=O)=O)c2)cc2ccccc21` [Example 140, 3-(1-Methylindol-2-yl)-N-(2-sulfamoylphenyl)benzenesulfonamide], the midpoint of inhibition, the IC50, lay at 2900 nM. Then `NS(=O)(=O)c1cccc(F)c1NS(=O)(=O)/C=C/c1cccc(Cl)c1` [Example 64, 2-[[(E)-2-(3-Chlorophenyl)ethenyl]sulfonylamino]-3-fluoro-benzenesulfonamide], with 3100 nM; and `Cn1nc(-c2ccc(S(=O)(=O)Nc3ccccc3S(N)(=O)=O)s2)cc1C(F)(F)F` [Example 130, 5-(1-Methyl-5-trifluoromethyl-1H-pyrazol-3-yl)-thiophene-2-sulfonic acid (2-sulfamoyl-phenyl)-amide], with 5200 nM. Regarding `NS(=O)(=O)c1cc(O)ccc1NS(=O)(=O)c1cccc(Cl)c1Cl` [Example 157, 2-(2,3-Dichloro-benzenesulfonylamino)-5-hydroxy-benzenesulfonamide], the IC50 (usually the concentration needed to halve the response being measured) is 1100 nM. Compared with the last compound, the IC50 is about 4.7-fold lower. On to `NS(=O)(=O)c1cc(CO)ccc1NS(=O)(=O)CCc1ccc(Cl)cc1` [Example 44, 2-[2-(4-Chlorophenyl)ethylsulfonylamino]-5-(hydroxymethyl)benzenesulfonamide], for which 750 nM corresponded to half-maximal inhibition (IC50). This IC50 and that of the compound before are within 1.5-fold of each other. Then `CC(C)(C)C#Cc1cccc(S(=O)(=O)Nc2ccccc2S(N)(=O)=O)c1` [Example 185, 3-(3,3-Dimethylbut-1-ynyl)-N-(2-sulfamoylphenyl)benzenesulfonamide], with 2500 nM.

The compound `CC(C)(C)C#Cc1ccc(CCS(=O)(=O)Nc2ccccc2S(N)(=O)=O)cc1` [Example 183, 2-(2-(4-(3,3-dimethylbut-1-ynyl)phenyl)ethylsulfonamido)benzenesulfonamide] displayed an IC50 of 81 nM. Then `NS(=O)(=O)c1cc(F)ccc1NS(=O)(=O)/C=C/c1ccc(-c2ccccc2)cc1` [Example 52, 5-Fluoro-2-[[(E)-2-(4-phenylphenyl)ethenyl]sulfonylamino]benzenesulfonamide], with 84 nM; and `NS(=O)(=O)c1ccccc1NS(=O)(=O)c1cccc(-c2ccc(C(F)(F)F)cc2)c1` [Example 134, 2-[[3-[4-(Trifluoromethyl)phenyl]phenyl]sulfonylamino]benzenesulfonamide], with 3700 nM. On to `COc1cc(Cl)ccc1CCS(=O)(=O)Nc1ccc(CO)cc1S(N)(=O)=O` [Example 213, 2-[2-(4-Chloro-2-methoxy-phenyl)-ethanesulfonylamino]-5-hydroxymethyl-benzenesulfonamide], for which the IC50 came out at 330 nM. Then `NS(=O)(=O)c1ccccc1NS(=O)(=O)CCc1ccc(Cl)cc1` [Example 72, 2-[2-(4-Chlorophenyl)ethylsulfonylamino]benzenesulfonamide], with 490 nM; and `NS(=O)(=O)c1cc(F)ccc1NS(=O)(=O)CCc1ccc(Cl)cc1` [Example 21, 2-[2-(4-Chlorophenyl)ethylsulfonylamino]-5-fluoro-benzenesulfonamide], with 320 nM; and `NS(=O)(=O)c1ccc(F)cc1NS(=O)(=O)/C=C/c1ccc(OC(F)F)cc1` [Example 41, 2-[[(E)-2-[4-(Difluoromethoxy)phenyl]ethenyl]sulfonylamino]-4-fluoro-benzenesulfonamide], with 1100 nM. Next, `NS(=O)(=O)c1c(F)cccc1NS(=O)(=O)/C=C/c1ccc(-c2cc3ccccc3o2)cc1` [Example 6, 2-[[(E)-2-(4-Benzofuran-2-ylphenyl)ethenyl]sulfonylamino]-6-fluoro-benzenesulfonamide]: 74 nM. Next, `COc1ncc(-c2cccc(S(=O)(=O)Nc3ccccc3S(N)(=O)=O)c2)cc1F` [Example 164, 3-(5-Fluoro-6-methoxy-pyridin-3-yl)-N-(2-sulfamoylphenyl)benzenesulfonamide]: 190 nM; `C/C(=C\c1ccc(Cl)cc1)S(=O)(=O)Nc1ccccc1S(N)(=O)=O` [Example 9, 2-[[(E)-1-(4-Chlorophenyl)prop-1-en-2-yl]sulfonylamino]benzenesulfonamide]: 610 nM; `COc1cccc(-c2cccc(S(=O)(=O)Nc3ccccc3S(N)(=O)=O)c2)n1` [Example 162, 3-(6-Methoxypyridin-2-yl)-N-(2-sulfamoylphenyl)benzenesulfonamide]: 5700 nM. As to `NS(=O)(=O)c1ccccc1NS(=O)(=O)/C=C/c1ccccc1OC(F)F` [Example 217, (E)-2-(2-(2-(difluoromethoxy)phenyl)vinylsulfonamido)benzenesulfonamide], the IC50 came to 110 nM. Against the preceding compound, the IC50 is about 52-fold lower. Then `NS(=O)(=O)c1ccccc1NS(=O)(=O)c1ccc2c(c1)CCC2` [Example 122, N-(2-Sulfamoylphenyl)-2,3-dihydro-1H-indene-5-sulfonamide], with 6700 nM; and `Cc1ccc(S(N)(=O)=O)c(NS(=O)(=O)CCc2ccc(Cl)c(Cl)c2)c1` [Example 200], with 1400 nM; and `NS(=O)(=O)c1cc(F)ccc1NS(=O)(=O)/C=C/c1ccc(-c2cc3ccccc3o2)cc1` [Example 4, 2-[[(E)-2-(4-Benzofuran-2-ylphenyl)ethenyl]sulfonylamino]-5-fluoro-benzenesulfonamide], with 79 nM. Next, `NS(=O)(=O)c1ccccc1NS(=O)(=O)c1cccc(-c2ccoc2)c1` [Example 119, 2-[[3-(3-Furyl)phenyl]sulfonylamino]benzenesulfonamide]: 4500 nM; `COc1ncccc1-c1cccc(S(=O)(=O)Nc2ccccc2S(N)(=O)=O)c1` [Example 167, 3-(2-Methoxypyridin-3-yl)-N-(2-sulfamoylphenyl)benzenesulfonamide]: 3800 nM. Then `CSc1ccccc1/C=C/S(=O)(=O)Nc1ccccc1S(N)(=O)=O` [Example 220, (E)-2-(2-(2-(methylthio)phenyl)vinylsulfonamido)benzenesulfonamide], with 270 nM; and `COc1ccc(/C=C/S(=O)(=O)Nc2ccccc2S(N)(=O)=O)cc1` [Example 77, 2-[[(E)-2-(4-Methoxyphenyl)ethenyl]sulfonylamino]benzenesulfonamide], with 3100 nM. The compound `NS(=O)(=O)c1ccccc1NS(=O)(=O)c1cccc(-c2cc(Cl)ccc2Cl)c1` [Example 132, 2-[[3-(2,5-Dichlorophenyl)phenyl]sulfonylamino]benzenesulfonamide] gave an IC50 of 4500 nM. Next, `Cc1ccc(NS(=O)(=O)CCc2ccc(C#CC(C)(C)C)cc2)c(S(N)(=O)=O)c1` [Example 210, 2-{2-[4-(3,3-Dimethyl-but-1-ynyl)-phenyl]-ethanesulfonylamino}-5-methyl-benzenesulfonamide]: 360 nM; `NS(=O)(=O)c1ccccc1NS(=O)(=O)CCc1ccc(C2CCCC2)cc1` [Example 69, 2-[2-(4-Cyclopentylphenyl)ethylsulfonylamino]benzenesulfonamide]: 270 nM. Next, `CSc1ccc(/C=C/S(=O)(=O)Nc2cc(F)ccc2S(N)(=O)=O)cc1` [Example 37, 4-Fluoro-2-[[(E)-2-(4-methylsulfanylphenyl)ethenyl]sulfonylamino]-benzenesulfonamide]: 160 nM; `Cc1ccc(NS(=O)(=O)/C=C/c2cccc(Cl)c2)c(S(N)(=O)=O)c1` [Example 63, 2-[[(E)-2-(3-Chlorophenyl)ethenyl]sulfonylamino]-5-methyl-benzenesulfonamide]: 3000 nM.

(Values after patent US20090163586A1, “Bis-(Sulfonylamino) Derivatives in Therapy 205” (AstraZeneca AB, priority 2007, published 2009).)
